Laboratory results: article PMC12848304, “Small-molecule inhibitor of C‑terminal HSP90 dimerization modulates autophagy and functions synergistically with mTOR inhibition to kill cisplatin-resistant cancer cells” (Cell Death & Disease, 2025)

How the values were obtained:
HSP90α CTD = biological target: T1, HSP90α CTD (Homo sapiens, UniProt P07900); test: thermal shift assay (SYPRO orange, […]) with recombinant HSP90α CTD; supported by BS3 cross-linking (loss of CTD dimers) and CETSA; type: binding; conditions: read-out: thermal shift assay (SYPRO orange, 100 μM) with recombinant HSP90α CTD; supporte
T1 construct: gene HSP90AA1; recombinant C-terminal domain (CTD)
T1 sequence (P07900 626-732 limits assumed): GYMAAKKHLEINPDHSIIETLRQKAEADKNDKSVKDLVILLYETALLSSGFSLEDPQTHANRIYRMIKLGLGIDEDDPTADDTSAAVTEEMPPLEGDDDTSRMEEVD

HSP90β = biological target: T2, HSP90β (Homo sapiens, UniProt P08238); test: TR-FRET HSP90 CTD/PPID interaction assay ([…]); type: biochemical
T2 construct: gene HSP90AB1; C-terminal domain (CTD); with PPID
T2 sequence (P08238 553-724 limits assumed): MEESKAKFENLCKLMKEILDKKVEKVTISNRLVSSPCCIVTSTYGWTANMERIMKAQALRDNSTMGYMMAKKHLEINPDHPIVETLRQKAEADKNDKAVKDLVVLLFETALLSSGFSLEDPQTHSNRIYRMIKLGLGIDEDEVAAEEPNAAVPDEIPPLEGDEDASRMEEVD
T2 sequence (Q08752 2-370 partner): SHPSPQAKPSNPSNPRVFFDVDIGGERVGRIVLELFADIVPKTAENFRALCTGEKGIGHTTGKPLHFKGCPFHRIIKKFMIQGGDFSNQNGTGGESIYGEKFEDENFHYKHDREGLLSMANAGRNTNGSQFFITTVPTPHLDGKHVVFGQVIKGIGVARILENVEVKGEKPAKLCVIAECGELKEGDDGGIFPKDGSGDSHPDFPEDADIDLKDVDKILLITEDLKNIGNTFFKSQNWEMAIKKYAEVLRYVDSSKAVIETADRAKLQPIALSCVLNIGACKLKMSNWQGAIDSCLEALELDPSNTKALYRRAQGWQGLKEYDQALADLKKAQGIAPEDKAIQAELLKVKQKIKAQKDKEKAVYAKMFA

## CCC(C)n1c(C(=O)Nc2cnc(C(=O)NC)n(CC(C)C)c2=O)ncc(NC(=O)c2ncc(N)c(=O)n2Cc2ccc(OC)cc2)c1=O (centres unmarked) [compound 2, VWK147]
HSP90α CTD
  ΔTm at 100 µM: -8.43 ± 2.75 °C
HSP90β
  TR-FRET HSP90 CTD/PPID interaction assay (1 mM): VWK147 disrupts the binding of Peptidyl prolyl isomerase D (PPID, CTD-specific co-chaperone) to the CTD of recombinant HSP90β
